Test results as given in article PMC7181277, “Synthesis and Biological Evaluation of New Antitubulin Agents Containing 2-(3′,4′,5′-trimethoxyanilino)-3,6-disubstituted-4,5,6,7-tetrahydrothieno[2,3-c]pyridine Scaffold” (Molecules, 2020).
Where two headings read alike, the source gives them in different places.

Legend:
[1] = system: murine leukemia (L1210) cells; experiment: In vitro antiproliferative assay, L1210 cells; type: cell-based; conditions: Mus musculus; murine leukemia L1210, 72 h, cell count; mean ± SE
Description: (§1) In Table 1 we report the in vitro antiproliferative activity of 2-(3′,4′,5′-trimethoxyanilino)-4,5,6,7-tetrahydrothieno[2,3-c]pyridine derivatives 3a–3j and the related 4,5,6,7-tetrahydrobenzo[b]thiophenes 3k–3p against a panel of three cell lines, which were derived from different cancer types, including murine leukemia (L1210), human T-lymphoblastoid leukemia (CEM), and human cervix carcinoma (HeLa) cells.
(§2) Murine leukemia L1210, human T-lymphocyte leukemia CEM, human cervix carcinoma (HeLa), and human chronic myelogenous leukemia K562 cells (3–5 × 10^4 cells) and a serial (5-fold) dilution of the test compounds were added to a 96-well microtiter plate. The cells were incubated for 72 h at 37 °C in a humidified 5% CO2 atmosphere. At the end of the incubation period, the cells were counted in a Coulter Counter (Coulter Electronics Ltd., Harpenden Herts, United Kingdom). The IC50 (50% inhibitory concentration) was defined as the concentration of compound that inhibited cell proliferation by 50%. The IC50 values represent the average (± standard deviation) of three independent experiments. Human peripheral blood mononuclear cells (PBMC) were obtained from healthy donors by centrifugation with Ficoll-Paque Plus (GE Healthcare Bio-Sciences AB, Uppsala).

[2] = system: human T-lymphoblastoid leukemia (CEM) cells; experiment: In vitro antiproliferative assay, CEM cells; type: cell-based; conditions: CCRF-CEM; human T-lymphocyte CEM, 72 h, cell count; mean ± SE
Protocol: as §2, with “The IC50 (50% inhibitory concentration) was defined as the concentration of compound that inhibited cell proliferation by 50%.” left out

[3] = system: human cervix carcinoma (HeLa) cells; experiment: In vitro antiproliferative assay, HeLa cells; type: cell-based; conditions: for fold more active than 2b against HeLa cells: relative to 2b (IC50: 41 μM); for IC50: human cervix carcinoma HeLa, 72 h, cell count, mean ± SE
Protocol: as §2, with “The IC50 (50% inhibitory concentration) was defined as the concentration of compound that inhibited cell proliferation by 50%.” left out

[4] = system: human chronic myelogenous leukemia K562 cells; experiment: In vitro antiproliferative assay, K562 cells; type: cell-based; conditions: 72 h; for IC50: Homo sapiens
Protocol: These values are 1.5-fold lower than those obtained with the 6-methoxycarbonyl derivative 3a against L1210 and HeLa cells, while both compounds were equipotent against CEM cells.
as §2

[5] = system: human peripheral blood mononuclear cells (PBMC); experiment: Antiproliferative activity in normal human cells (PBMC); type: cell-based; conditions: 72 h
Protocol: In order to investigate the selective antiproliferative activities of derivatives 3a and 3b in normal human cells, both these molecules were tested in vitro against human peripheral blood mononuclear cells (PBMC) isolated from healthy donors.
as §2

Bovine brain tubulin = experiment: Inhibition of tubulin polymerization (turbidimetric assembly); type: biochemical; conditions: tubulin at 10 μM, 20 min incubation; read-out: Tubulin assembly IC50 ± SD
Protocol: (§3) Bovine brain tubulin was purified as described previously. To evaluate the effect of the compounds on tubulin assembly in vitro [59], varying concentrations were preincubated with 10 μM tubulin in 0.8 M glutamate buffer at 30 °C and then cooled to 0 °C. After addition of GTP, the mixtures were transferred to 0 °C cuvettes in a recording spectrophotometer and warmed to 30 °C, and the assembly of tubulin was observed turbidimetrically. […] The ability of the test compounds to inhibit colchicine binding to tubulin was measured as described earlier, except that the reaction mixtures contained 1 μM tubulin, 5 μM of [^3H]colchicine, and test compounds 3a or 3b.

[6] = system: tubulin (colchicine site); experiment: Inhibition of [3H]colchicine binding to tubulin; design: species or system Bovine; conditions: tubulin 1 μM, colchicine 5 μM, compound 5 μM
Protocol: as §3

K562 cells [7] = experiment: Cell cycle distribution by flow cytometry (Muse Cell Analyzer); type: cell-based, human; conditions: K562, 72 h, three experiments, average ± S.D.; for percentage of G2/M-phase cells at IC50: at IC50 (3a 0.75 μM, 3b 0.70 μM); for percentage of G2/M-phase cells at IC75: at IC75 (3a 1.0 μM, 3b 0.90 μM)
Protocol: The cells were cultured for 72 h in the presence of two different concentrations (IC50 and IC75) for each tested derivative and the obtained results were compared with non-treated K562 cells as control.
Human leukemia K562 cells were treated with compounds 3a or 3b, and analysis of the distribution of the cells through the cell cycle was performed with the Muse Cell Analyzer instrument (Millipore Corporation, Billerica, MA, USA). Assay and cell counting were performed according to the instructions supplied by the manufacturer. Samples were collected after the treatment and washed in PBS. For analysis, 5 × 10^5 cells were resuspended in 200 μL of Muse Cell Cycle Reagent, incubated for 30 min at room temperature, and the cell suspension was transferred to a 1.5 mL microcentrifuge tube prior to analysis. Cells were analyzed by fluorescence-activated cell sorting analysis using a Muse Cell Analyzer.

K562 cells [8] = experiment: Apoptosis assay (Muse Annexin V & Dead Cell Kit); type: cell-based, human; conditions: K562, 72 h, representative experiment; for cells undergoing apoptosis (total) at IC50: at IC50 (3a 0.75 μM, 3b 0.70 μM); for cells undergoing apoptosis (total) at IC75: at IC75 (3a 1.00 μM, 3b 0.90 μM)
Description: This phospholipid flips from the inner to the outer leaflet of the plasma membrane during apoptosis. Positive staining with annexin-V correlates with the loss of plasma membrane polarity, but this staining precedes the complete loss of membrane integrity that accompanies the later stages of cell death, resulting from either apoptosis or necrosis. In contrast, PI can only enter cells after complete loss of membrane integrity. Thus, dual staining for annexin-V and with PI permits discrimination between unaffected cells (annexin-V^−/PI^−), early apoptotic cells (annexin-V^+/PI^−), late apoptotic cells (annexin-V^+/PI^+), and necrotic cells (annexin-V^−/PI^+).
Apoptosis assays on K562 cells were performed with the Muse Cell Analyzer instrument, and assays were performed according to the instructions supplied by the manufacturer. The Muse Annexin V & Dead Cell Kit employs annexin V to detect phosphatidyl serine (PS) on the external membrane of apoptotic cells. A fluorescent DNA intercalator (7-ADD: 7-aminoactinomycin D) is also used as an indicator of cell membrane integrity. From live, healthy cells, as well as early apoptotic cells, 7-ADD is excluded while it is able to bind DNA in cells in late apoptosis and in dead cells. Cells were washed with sterile PBS 1X, suspended, and diluted (1:2) with the Muse Annexin V & Dead Cell reagent. Samples were gently mixed and incubated at room temperature, protected from the light for 15 min. Samples were analyzed using a Muse Cell Analyzer, and data from prepared samples were acquired and recorded utilizing the Annexin V and Dead Cell Software Module (Millipore).

[9] = system: L1210, CEM, and HeLa cells; experiment: Antiproliferative activity, panel of three cancer cell lines; type: cell-based; conditions: for IC50: span over L1210, CEM and HeLa, read-out: IC50 values against the panel of three cancer cell lines
Description: as §1, §2

[10] = phytohemagglutin (PHA)-stimulated PBMC, read-out: IC50 PBMC, PHA-stimulated
[11] = resting PBMC from healthy donors, read-out: IC50 PBMC, resting

Row | SMILES | IC50 [1] [nM] | IC50 [2] [nM] | fold more active than 2b against HeLa cells [3] [fold] | IC50 [3] [nM] | IC75 K562 [4] [nM] | IC50 [4] [nM] | IC50 [5, 10] [nM] | IC50 [5, 11] [nM] | IC50 (Bovine brain tubulin) [nM] | Colchicine binding % ± SD (inhibition of [3H]colchicine binding) [6] [%] | percentage of G2/M-phase cells at IC50 (K562 cells [7]) | percentage of G2/M-phase cells at IC75 (K562 cells [7]) | cells undergoing apoptosis (total) at IC50 (K562 cells [8]) [%] | cells undergoing apoptosis (total) at IC75 (K562 cells [8]) [%] | IC50 [9] [nM] | fold lower IC50 than 3a ([9]; against L1210 and HeLa cells) [fold]
1 | COC(=O)N1CCc2c(sc(Nc3cc(OC)c(OC)c(OC)c3)c2C#N)C1 [Compound 3a, Methyl 3-cyano-2-((3,4,5-trimethoxyphenyl)amino)-4,5-dihydrothieno[2,3-c]pyridine-6(7H)-carboxylate] | 4700 ± 400 | 2900 ± 2100 | 40 | 1900 ± 1200 | 1000 | 750 | > 20000 | > 20000 | 3800 ± 50 | 29 ± 1 | 33.6% ± 1.1% | 34.9% ± 1.3% | 29.64 | 46.68 | 1900 to 4700 | 
2 | CCOC(=O)N1CCc2c(sc(Nc3cc(OC)c(OC)c(OC)c3)c2C#N)C1 [Compound 3b, Ethyl 3-cyano-2-((3,4,5-trimethoxyphenyl)amino)-4,5-dihydrothieno[2,3-c]pyridine-6(7H)-carboxylate] | 2800 ± 2300 | 2300 ± 1700 | 20 | 1100 | 900 | 700 | > 20000 | > 20000 | 3400 ± 50 | 31 ± 1 | 30.3% ± 1.3% | 33.5% ± 0.6% | 32.87 | 56.01 | 1100 to 2800 | 1.5
